Test results taken from the supplement of paper PMC10307832.

Key:
Experiment in all cases: relative viability (nuclei count vs DMSO), 5 days (fraction); higher = more cells survive
Linifanib + Dasatinib = compound: Cc1ccc(F)c(NC(=O)Nc2ccc(-c3cccc4[nH]nc(N)c34)cc2)c1 [Linifanib] + Cc1nc(Nc2ncc(C(=O)Nc3c(C)cccc3Cl)s2)cc(N2CCN(CCO)CC2)n1 [Dasatinib] (partner 0.075 µM)
How it was run: (§1)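 Nuclei were stained with Hoechst during a one-step fixation (final 0.05% Triton X-100, 1% formaldehyde, 1 ug/ml Hoechst) carried out 5 days after dosing, then counted on 4× images. The cells, lung cancer lines in 1536-well plates, had been dosed by pin tool the day after seeding with one drug alone or a fixed anchor-drug dose plus five library-drug doses (not always all listed) in √10 steps. Relative viability is the nuclei count in treated wells divided by that in vehicle wells, and each value is the median of duplicate plates.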

Linifanib + Foretinib = compound: Cc1ccc(F)c(NC(=O)Nc2ccc(-c3cccc4[nH]nc(N)c34)cc2)c1 [Linifanib] + COc1cc2c(Oc3ccc(NC(=O)C4(C(=O)Nc5ccc(F)cc5)CC4)cc3F)ccnc2cc1OCCCN1CCOCC1 [Foretinib] (partner 0.25 µM)
How it was run: as §1

Linifanib + Phenformin = compound: Cc1ccc(F)c(NC(=O)Nc2ccc(-c3cccc4[nH]nc(N)c34)cc2)c1 [Linifanib] + N=C(N)NC(=N)NCCc1ccccc1 [Phenformin] (partner 250 µM)
How it was run: as §1

Linifanib + Tozasertib = compound: Cc1ccc(F)c(NC(=O)Nc2ccc(-c3cccc4[nH]nc(N)c34)cc2)c1 [Linifanib] + Cc1cc(Nc2cc(N3CCN(C)CC3)nc(Sc3ccc(NC(=O)C4CC4)cc3)n2)n[nH]1 [Tozasertib] (partner 0.1 µM)
How it was run: as §1

Linifanib + OSI-027 = compound: Cc1ccc(F)c(NC(=O)Nc2ccc(-c3cccc4[nH]nc(N)c34)cc2)c1 [Linifanib] + COc1cccc2cc(-c3nc([C@H]4CC[C@H](C(=O)O)CC4)n4ncnc(N)c34)[nH]c12 [OSI-027] (partner 0.5 µM)
How it was run: as §1

Linifanib + Luminespib = compound: Cc1ccc(F)c(NC(=O)Nc2ccc(-c3cccc4[nH]nc(N)c34)cc2)c1 [Linifanib] + CCNC(=O)c1noc(-c2cc(C(C)C)c(O)cc2O)c1-c1ccc(CN2CCOCC2)cc1 [Luminespib] (partner 0.01 µM)
How it was run: as §1

Linifanib = compound: Cc1ccc(F)c(NC(=O)Nc2ccc(-c3cccc4[nH]nc(N)c34)cc2)c1 [Linifanib]
How it was run: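 Lung cancer cell lines in 1536-well plates were exposed by pinning to five library-drug doses (not always all listed) √10 apart, following an overnight hold at 37 °C. MetaXpress counted Hoechst-stained nuclei from 4× images taken after 5 days without medium change. Viability is the median ratio of treated-well to vehicle-well nuclei across plates. Plates required control CV below 25% and at least one doubling.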

Linifanib + Olaparib = compound: Cc1ccc(F)c(NC(=O)Nc2ccc(-c3cccc4[nH]nc(N)c34)cc2)c1 [Linifanib] + O=C(c1cc(Cc2n[nH]c(=O)c3ccccc23)ccc1F)N1CCN(C(=O)C2CC2)CC1 [Olaparib] (partner 8 µM)
How it was run: as §1

Linifanib + AZD7762 = compound: Cc1ccc(F)c(NC(=O)Nc2ccc(-c3cccc4[nH]nc(N)c34)cc2)c1 [Linifanib] + NC(=O)Nc1cc(-c2cccc(F)c2)sc1C(=O)N[C@H]1CCCNC1 [AZD7762] (partner 0.2 µM)
How it was run: as §1

Linifanib + Vorinostat = compound: Cc1ccc(F)c(NC(=O)Nc2ccc(-c3cccc4[nH]nc(N)c34)cc2)c1 [Linifanib] + O=C(CCCCCCC(=O)Nc1ccccc1)NO [Vorinostat] (partner 1 µM)
How it was run: as §1

Linifanib + Pemetrexed = compound: Cc1ccc(F)c(NC(=O)Nc2ccc(-c3cccc4[nH]nc(N)c34)cc2)c1 [Linifanib] + Nc1nc2[nH]cc(CCc3ccc(C(=O)N[C@@H](CCC(=O)O)C(=O)O)cc3)c2c(=O)[nH]1 [Pemetrexed] (partner 0.2 µM)
How it was run: as §1

Linifanib + Decitabine = compound: Cc1ccc(F)c(NC(=O)Nc2ccc(-c3cccc4[nH]nc(N)c34)cc2)c1 [Linifanib] + Nc1ncn([C@H]2C[C@H](O)[C@@H](CO)O2)c(=O)n1 [Decitabine] (partner 2 µM)
How it was run: as §1

Linifanib + Trametinib = compound: Cc1ccc(F)c(NC(=O)Nc2ccc(-c3cccc4[nH]nc(N)c34)cc2)c1 [Linifanib] + CC(=O)Nc1cccc(-n2c(=O)n(C3CC3)c(=O)c3c(Nc4ccc(I)cc4F)n(C)c(=O)c(C)c32)c1 [Trametinib] (partner 0.02 µM)
How it was run: as §1

Linifanib + Palbociclib = compound: Cc1ccc(F)c(NC(=O)Nc2ccc(-c3cccc4[nH]nc(N)c34)cc2)c1 [Linifanib] + CC(=O)c1c(C)c2cnc(Nc3ccc(N4CCNCC4)cn3)nc2n(C2CCCC2)c1=O [Palbociclib] (partner 0.5 µM)
How it was run: as §1

| Cell Line | relative viability (Linifanib + Dasatinib; first compound 0.03162 µM) | relative viability (Linifanib + Dasatinib; first compound 0.1 µM) | relative viability (Linifanib + Dasatinib; first compound 0.3162 µM) | relative viability (Linifanib + Foretinib; first compound 0.03162 µM) | relative viability (Linifanib + Foretinib; first compound 0.1 µM) | relative viability (Linifanib + Foretinib; first compound 0.3162 µM) | relative viability (Linifanib + Phenformin; first compound 0.03162 µM) | relative viability (Linifanib + Phenformin; first compound 0.1 µM) | relative viability (Linifanib + Phenformin; first compound 0.3162 µM) | relative viability (Linifanib + Tozasertib; first compound 0.03162 µM) | relative viability (Linifanib + Tozasertib; first compound 0.1 µM) | relative viability (Linifanib + Tozasertib; first compound 0.3162 µM) | relative viability (Linifanib + OSI-027; first compound 0.03162 µM) | relative viability (Linifanib + OSI-027; first compound 0.1 µM) | relative viability (Linifanib + OSI-027; first compound 0.3162 µM) | relative viability (Linifanib + Luminespib; first compound 0.03162 µM) | relative viability (Linifanib + Luminespib; first compound 0.1 µM) | relative viability (Linifanib + Luminespib; first compound 0.3162 µM) | relative viability (Linifanib; 0.03162 µM) | relative viability (Linifanib; 0.1 µM) | relative viability (Linifanib; 0.3162 µM) | relative viability (Linifanib + Olaparib; first compound 0.03162 µM) | relative viability (Linifanib + Olaparib; first compound 0.3162 µM) | relative viability (Linifanib + AZD7762; first compound 0.03162 µM) | relative viability (Linifanib + AZD7762; first compound 0.3162 µM) | relative viability (Linifanib + Vorinostat; first compound 0.03162 µM) | relative viability (Linifanib + Vorinostat; first compound 0.3162 µM) | relative viability (Linifanib + Pemetrexed; first compound 0.03162 µM) | relative viability (Linifanib + Pemetrexed; first compound 0.3162 µM) | relative viability (Linifanib + Decitabine; first compound 0.03162 µM) | relative viability (Linifanib + Decitabine; first compound 0.3162 µM) | relative viability (Linifanib + Trametinib; first compound 0.03162 µM) | relative viability (Linifanib + Trametinib; first compound 0.3162 µM) | relative viability (Linifanib + Palbociclib; first compound 0.03162 µM) | relative viability (Linifanib + Palbociclib; first compound 0.3162 µM) |
| --- | --- | --- | --- | --- | --- | --- | --- | --- | --- | --- | --- | --- | --- | --- | --- | --- | --- | --- | --- | --- | --- | --- | --- | --- | --- | --- | --- | --- | --- | --- | --- | --- | --- | --- | --- |
| NCI-H1623 | 0.463 | 0.608 | 0.46 | 0.848 | 0.929 | 0.877 | 0.524 | 0.601 | 0.601 | 0.427 | 0.434 | 0.417 | 0.437 | 0.43 | 0.421 | 0.49 | 0.493 | 0.471 | 0.918 | 0.891 | 1.04 |  |  |  |  |  |  |  |  |  |  |  |  |  |  |
| NCI-H1648 |  |  |  |  |  |  |  |  |  | 0.433 | 0.441 | 0.422 | 0.26 | 0.229 | 0.263 |  |  |  | 0.847 | 0.688 | 1.08 | 0.847 | 1.11 | 0.755 | 0.509 | 0.491 | 0.412 | 0.716 | 0.654 | 0.5 | 0.45 | 0.469 | 0.461 | 0.234 | 0.269 |
